From US20260070945A1, “MACROCYCLIC IMMUNOMODULATORS” (Bristol-Myers Squibb Company, priority 2022, published 2026)
*1 amine or outer side, *2 acyl side, *3 side chain or, on linkers, in order; H or OH if unused. Where a SMILES comes first, the peptide text is derived from it. Bridges are numbered along the chain shown (N, C = ends). [ ]: non-standard residue; d: D form. The star is where a group is joined. ξ: configuration not given here. X10 = O=C(O)COc1ccc(C[C@H](CC(=O)C[*:2])C(=O)[*:1])cc1; Phe(3-CF3) = N[C@@H](Cc1cccc(C(F)(F)F)c1)C(=O)O; Phe(4-COOH) = N[C@@H](Cc1ccc(C(=O)O)cc1)C(=O)O; Bip = N[C@@H](Cc1ccc(-c2ccccc2)cc1)C(=O)O; Phe(3-Me) = Cc1cccc(C[C@H](N)C(=O)O)c1; γGlu = O=C(O)[C@H](CCC(=O)[*:2])N[*:1]; NMeAEEA = CN(CCOCCOCC(=O)[*:2])[*:1]; Val(3-OH) = CC(C)(O)[C@H](N)C(=O)O; aIle = CC[C@@H](C)[C@H](N)C(=O)O; Cha = N[C@@H](CC1CCCCC1)C(=O)O; Cit = NC(=O)NCCC[C@H](N)C(=O)O; Ile(3ξ) = CCC(C)[C@H](N)C(=O)O; Thr(3ξ) = CC(O)[C@H](N)C(=O)O; X9 = NC(=O)CCCCCCCCCCCCCCN*; 12Ado = NCCCCCCCCCCCC(=O)O; hSer = N[C@@H](CCO)C(=O)O; Carboxymethyl = O=C(O)C*; NMeA = CN[C@@H](C)C(=O)O; Orn = NCCC[C@H](N)C(=O)O; Aun = NCCCCCCCCCCC(=O)O; Dab = NCC[C@H](N)C(=O)O; Dap = NC[C@H](N)C(=O)O; AEEA = NCCOCCOCC(=O)O

Each compound was assayed against T1, PD-1/PD-L1 interaction (PE-labeled human PD-L1-Ig binding to Jurkat cell line over-expressing human PD-1) (Homo sapiens, UniProt Q15116) (assay: Jurkat-PD-1 Cell Binding High-Content Screening Assay (CBA)). Details: Jurkat-hPD-1 cells, PE-labeled PD-L1-Ig 20 nM final; read-out: Jurkat HPD1 PDL1 IC50.
T1 construct: expressed in transfected cells; host or cells: Jurkat
T1 sequence (Q15116 25-288): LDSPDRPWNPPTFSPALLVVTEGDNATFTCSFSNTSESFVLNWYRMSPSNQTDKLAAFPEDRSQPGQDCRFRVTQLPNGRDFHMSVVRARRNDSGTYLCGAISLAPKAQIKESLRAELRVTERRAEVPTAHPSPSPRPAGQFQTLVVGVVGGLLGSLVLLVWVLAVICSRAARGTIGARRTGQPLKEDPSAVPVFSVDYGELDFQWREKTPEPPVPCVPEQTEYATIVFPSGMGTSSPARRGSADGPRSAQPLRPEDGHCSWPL
How it was run: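 Cells 8×10^3/well, DMEM + 10% FCS; cpd 2 h, 37 °C; PE–PD-L1-Ig 20 nM final, 1 h; PFA fix + Hoechst 33342, 3× dPBS wash; high-content imager.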

First: Cc1cccc(C[C@@H]2NC(=O)[C@H](CC(=O)O)NC(=O)[C@H](Cc3ccc(OCC(=O)O)cc3)NC(=O)[C@H](C(C)O)NC(=O)CSC[C@@H](C(=O)N(C)CCOCCOCC(=O)NCCCCCCCCCCC(=O)O)NC(=O)[C@H](CCO)NC(=O)[C@H](C(C)C)NC(=O)[C@H](CC3CCCCC3)NC(=O)[C@H](CCN)NC(=O)[C@@H](CC(C)C)NC(=O)[C@H](C)N(C)C(=O)[C@H](C(C)C)NC(=O)[C@H](Cc3ccc(-c4ccccc4)cc3)NC(=O)[C@H](C(C)C)NC2=O)c1 (stereo partly drawn) [Example 2364] ({CH2CO}-[Thr(3ξ)]Y(Carboxymethyl)D[Phe(3-Me)]V[Bip]V[NMeA][dL][Dab][Cha]V[hSer]C[NMeAEEA][Aun]-OH; thioether N-14)
Second: Cc1cccc(C[C@@H]2NC(=O)[C@H](CC(=O)O)NC(=O)[C@H](Cc3ccc(OCC(=O)O)cc3)NC(=O)[C@H](C(C)O)NC(=O)CSC[C@@H](C(=O)N(C)CCOCCOCC(=O)NCCCCCCCCCCC(=O)O)NC(=O)[C@H](CCC(N)=O)NC(=O)[C@H](C(C)C)NC(=O)[C@H](CC3CCCCC3)NC(=O)[C@H](CCN)NC(=O)[C@@H](CC(C)C)NC(=O)[C@H](C)N(C)C(=O)[C@H](C(C)C)NC(=O)[C@H](Cc3ccc(-c4ccccc4)cc3)NC(=O)[C@H](C(C)C)NC2=O)c1 (stereo partly drawn) [Example 2357] ({CH2CO}-[Thr(3ξ)]Y(Carboxymethyl)D[Phe(3-Me)]V[Bip]V[NMeA][dL][Dab][Cha]VQC[NMeAEEA][Aun]-OH; thioether N-14)
The IC50 of the first is 1.8-fold lower: 36.3 nM for the first, 66.7 nM for the second. The first is the more potent here.

Compared with `CC[C@@H](C)[C@@H]1NC(=O)[C@H](Cc2ccc(-c3ccccc3)cc2)NC(=O)[C@H](C(C)C)NC(=O)[C@H](Cc2c[nH]c3ccccc23)NC(=O)[C@H](CC(=O)O)NC(=O)[C@H](Cc2ccc(O)cc2)NC(=O)[C@H](CCCNC(N)=O)NC(=O)CSC[C@@H](C(=O)N[C@H](CC(N)=O)C(=O)NCCOCCOCC(=O)N[C@@H](CCC(=O)NCCOCCOCC(=O)N[C@@H](CCC(=O)NCCOCCOCC(=O)N[C@@H](CCCN)C(=O)NCCCCCCCCCCC(=O)O)C(=O)O)C(=O)O)NC(=O)[C@H](CO)NC(=O)[C@H](C(C)C)NC(=O)[C@H](CC2CCCCC2)NC(=O)[C@H](CC(N)=O)NC(=O)[C@@H](CC(C)C)NC(=O)[C@H](C)N(C)C1=O` [Example 2025] ({CH2CO}-[Cit]YDWV[Bip][aIle][NMeA][dL]N[Cha]VSC[dN][AEEA][γGlu][AEEA][γGlu][AEEA][Orn][Aun]-OH; thioether N-14), `CCC(C)[C@@H]1NC(=O)[C@H](Cc2ccc(-c3ccccc3)cc2)NC(=O)[C@H](C(C)C)NC(=O)[C@H](Cc2c[nH]c3ccccc23)NC(=O)[C@H](CC(=O)O)NC(=O)[C@H](Cc2ccc(OCC(=O)O)cc2)NC(=O)[C@H](C(C)O)NC(=O)CSC[C@@H](C(=O)N[C@@H](CCCN)C(=O)N[C@@H](CO)C(=O)NCCCCCCCCCCCC(=O)O)NC(=O)[C@H](C(C)O)NC(=O)[C@H](C(C)C)NC(=O)[C@H](CC2CCCCC2)NC(=O)[C@H](CCN)NC(=O)[C@@H](CC(C)C)NC(=O)[C@H](C)N(C)C1=O` (stereo partly drawn) [Example 2410] ({CH2CO}-[Thr(3ξ)]Y(Carboxymethyl)DWV[Bip][Ile(3ξ)][NMeA][dL][Dab][Cha]V[Thr(3ξ)]C[Orn]S[12Ado]-OH; thioether N-14) is 2.2-fold higher in IC50: 49.8 nM for the first, 108 nM for the second. The first is the more potent here.

Compared with `CC(C)C[C@@H]1NC(=O)[C@H](Cc2c[nH]c3ccccc23)NC(=O)[C@H](CC(=O)O)NC(=O)[C@H](Cc2ccc(C(=O)O)cc2)NC(=O)[C@H](Cc2ccc(OCC(=O)O)cc2)NC(=O)CSC[C@@H](C(=O)NCC(=O)N[C@@H](CCCCN)C(=O)NCC(=O)NCCCCCCCCCCC(=O)O)NC(=O)[C@H](CO)NC(=O)[C@H](C(C)C)NC(=O)[C@H](CC2CCCCC2)NC(=O)[C@H](CCN)NC(=O)[C@@H](CC(C)C)NC(=O)[C@H](C)N(C)C(=O)[C@H](C(C)C)NC(=O)[C@H](Cc2ccc(-c3ccccc3)cc2)NC1=O` [Example 1031] ({CH2CO}-Y(Carboxymethyl)[Phe(4-COOH)]DWL[Bip]V[NMeA][dL][Dab][Cha]VSCGKG[Aun]-OH; thioether N-14), `Cc1cccc(C[C@@H]2NC(=O)[C@H](CC(=O)O)NC(=O)[C@H](Cc3ccc(OCC(=O)O)cc3)NC(=O)[C@H](Cc3ccc(OCC(=O)O)cc3)NC(=O)CSC[C@@H](C(=O)N[C@@H](CN)C(=O)NCCCCCCCCCCC(=O)O)NC(=O)[C@H](C(C)O)NC(=O)[C@H](C(C)C)NC(=O)[C@H](CC3CCCCC3)NC(=O)[C@H](CCN)NC(=O)[C@@H](CC(C)C)NC(=O)[C@H](C)N(C)C(=O)[C@H](C(C)C)NC(=O)[C@H](Cc3ccc(-c4ccccc4)cc3)NC(=O)[C@H](CC(C)C)NC2=O)c1` (stereo partly drawn) [Example 2333] ({CH2CO}-Y(Carboxymethyl)Y(Carboxymethyl)D[Phe(3-Me)]L[Bip]V[NMeA][dL][Dab][Cha]V[Thr(3ξ)]C[Dap][Aun]-OH; thioether N-14) is 2.2-fold higher in IC50: 10.7 nM for the first, 23.5 nM for the second.

`Cc1cccc(C[C@@H]2NC(=O)[C@H](CC(=O)O)NC(=O)[C@H](Cc3ccc(OCC(=O)O)cc3)NC(=O)[C@H](C(C)O)NC(=O)CSC[C@@H](C(=O)N(C)CCOCCOCC(=O)NCCCCCCCCCCC(=O)O)NC(=O)[C@H](CCCN)NC(=O)[C@H](C(C)C)NC(=O)[C@H](CC3CCCCC3)NC(=O)[C@H](CCN)NC(=O)[C@@H](CC(C)C)NC(=O)[C@H](C)N(C)C(=O)[C@H](C(C)C)NC(=O)[C@H](Cc3ccc(-c4ccccc4)cc3)NC(=O)[C@H](C(C)C)NC2=O)c1` (stereo partly drawn) [Example 2219] ({CH2CO}-[Thr(3ξ)]Y(Carboxymethyl)D[Phe(3-Me)]V[Bip]V[NMeA][dL][Dab][Cha]V[Orn]C[NMeAEEA][Aun]-OH; thioether N-14) gave an IC50 of 6.2 nM.

Same assay, conditions: PE-labeled PD-L1-Ig 20 nM final, Jurkat-hPD-1 cells; read-out: Jurkat HPD1 PDL1 IC50

Compared with `CC(=O)NCCCC[C@@H]1NC(=O)[C@H](C(C)(C)O)NC(=O)[C@H](CC2CCCCC2)NC(=O)[C@H](CCN)NC(=O)[C@@H](CC(C)C)NC(=O)[C@H](C)N(C)C(=O)[C@H](CCC(N)=O)NC(=O)[C@H](Cc2ccc(-c3ccccc3)cc2)NC(=O)[C@H](Cc2ccc(C(=O)O)cc2)NC(=O)[C@H](Cc2cccc(C(F)(F)F)c2)NC(=O)[C@H](CC(=O)O)NC(=O)[C@H](Cc2ccc(OCC(=O)O)cc2)NC(=O)[C@H](Cc2ccc(OCC(=O)O)cc2)CC(=O)CSC[C@@H](C(=O)N[C@@H](CCN)C(=O)NCCOCCOCC(=O)N[C@@H](CC(=O)NCCCCCCCCCCCCCCC(N)=O)C(=O)O)NC1=O` [Example 2637] (Y(Carboxymethyl)D[Phe(3-CF3)][Phe(4-COOH)][Bip]Q[NMeA][dL][Dab][Cha][Val(3-OH)]K(Ac)C[Dab][AEEA]D(X9)-OH; linker N-13 via X10), `CC(=O)NCCCC[C@@H]1NC(=O)[C@H](C(C)(C)O)NC(=O)[C@H](CC2CCCCC2)NC(=O)[C@H](CCN)NC(=O)[C@@H](CC(C)C)NC(=O)[C@H](C)N(C)C(=O)[C@H](CCC(N)=O)NC(=O)[C@H](Cc2ccc(-c3ccccc3)cc2)NC(=O)[C@H](Cc2ccc(C(=O)O)cc2)NC(=O)[C@H](Cc2cccc(C(F)(F)F)c2)NC(=O)[C@H](CC(=O)O)NC(=O)[C@H](Cc2ccc(OCC(=O)O)cc2)NC(=O)[C@H](Cc2ccc(OCC(=O)O)cc2)NC(=O)CSC[C@@H](C(=O)N[C@@H](CCN)C(=O)NCCOCCOCC(=O)NCCCCCCCCCCC(=O)O)NC1=O` [Example 2579] ({CH2CO}-Y(Carboxymethyl)Y(Carboxymethyl)D[Phe(3-CF3)][Phe(4-COOH)][Bip]Q[NMeA][dL][Dab][Cha][Val(3-OH)]K(Ac)C[Dab][AEEA][Aun]-OH; thioether N-14) is 9.3-fold lower in IC50: 24.2 nM for the first, 2.6 nM for the second. The second is the more potent here.
